Key:
[1] = In vitro permeation screening of device materials; format: physicochemical; parameters: key: “O” is permeable (suitable for the stripe material); “A” is practically impermeable; “X” is impermeable (suitable for a base material, i.e., the non-stripe portion of a system body)
Procedure: A number of polymeric materials were tested to determine their suitability as a material of construction of an elastic system body for release of various erdafitinib formulations in a permeation-controlled release system. The materials included silicone, several thermoplastic polyurethane (TPUs) manufactured by Lubrizol Life Science (Bethlehem, PA).
In general, materials that are impermeable to erdafitinib, the API, are suitable for use as the base material in permeation systems. Materials that are permeable to the API are suitable for use as the stripe material in permeation systems. Platinum cured silicone, thermoplastic polyurethanes (TPUs), and ethylene vinyl acetate (EVA) materials were screened (Table 10). The test articles were filled with formulated API (powder or tablets), sealed, placed in foil pouches, and gamma irradiated (nominal 35 kGy). The systems were placed into simulated urine (pH 6.8), stored at 37° C., and sampled periodically. The amount of API in each sample was determined by high-performance liquid chromatography (HPLC) analysis.

[2] = In vitro release of prototype permeation systems in simulated urine (Table 5); format: physicochemical; conditions: simulated urine at various pHs
[3] = Stability in human urine; format: in vitro ADME; conditions: freshly collected human urine, 37° C.
Procedure: (§1) At the end of 6-hours post-dialysis incubation, drug was analyzed and the recovery was calculated against the spiked concentrations.

[4] = Stability in minipig urine; format: in vitro ADME; conditions: freshly collected minipig urine, 37° C.
Procedure: as §1

[5] = Stability in rat urine; format: in vitro ADME; conditions: freshly collected rat urine, 37° C.
Procedure: as §1

[6] = In vitro protein binding in rat urine; format: in vitro ADME
Procedure: (§2) Albuminuria/proteinuria had minimal effect on % free form in urine.
as §1

[7] = In vitro protein binding in minipig urine; format: in vitro ADME
Procedure: as §2, §1

[8] = In vitro protein binding in human urine; format: in vitro ADME
Procedure: as §2, §1

[9] = test system: ERK1/2 phosphorylation; assay: pERK/ERK in orthotopic bladder UM-UC-1 tumors by capillary immunoblotting; format: in vivo, nude rats
Source text: The signals for pERK1/2 were divided by the total ERK1/2 signal in the same sample and the mean of the pERK1/2 values for the corresponding vehicle-treated samples was set at a relative value of 1. At each timepoint, the pERK/ERK ratio for each tumor sample was divided by the mean pERK/ERK ratio derived from the corresponding control samples. There was 1 exception, as there were no vehicle-treated samples at the 120-hour timepoint, the pERK/ERK ratios for the erdafitinib-treated samples at the 120-hour timepoint were divided by the mean of the 48-hour vehicle-treated group.

[10] = test system: orthotopic UM-UC-1 bladder tumors; assay: Continuous bladder perfusion, orthotopic UM-UC-1 bladder cancer model
Procedure: Perfusion studies: The bladders of the study animals were cannulated on Day 1 and the animals were allowed to recover for 3 days. On Day 5, UM-UC-1 cells (2×10^6 cells) were injected into the lateral wall of each bladder. […] Based on the in vitro results, target urine concentrations of 0.5, 1.0, and 5.0 μg/mL were used in the perfusion experiments. Body weight, daily urine production, and daily water consumption were recorded. At necropsy, a plasma sample, bladder photographs, and bladder weight measurements were recorded.
The percent reduction in relative tumor weight between the control group and the drug perfusion groups was determined as an initial measure of efficacy. Bladder tissue and tumor samples were also submitted for analysis of FGFR signaling activity by determining the phosphorylated fibroblast growth factor receptor substrate (FRS)2a levels and the pERK to ERK ratio.

[11] = test system: orthotopic RT-112 bladder tumor; assay: Continuous bladder perfusion, RT-112 implanted into the bladder wall
Source text: Perfusion studies: The experimental study design was the same as described in Example 11 (FIG. 12), except that the perfusions were continued until the time of necropsy on Day 14.

[12] = Solubility as a function of pH; format: physicochemical; conditions: normal urine pH range of 5.5 to 7
[13] = In vitro release (IVR) of permeation prototypes in simulated urine; format: physicochemical; conditions: highest release rates at pH 5, significantly reduced at pH 8
Procedure: The drug formats evaluated included erdafitinib free base, erdafitinib free base plus HP-β-CD and erdafitinib salts, e.g. HCl salt.
The pH range for normal human urine is in the 5.5 to 7 range, but some disease states can result in higher urine pH values (pH 8). […] The base material for this tubing could be either AR-75A-B20 or AC-4075A-B20.
Drug and device constituents are described in Tables 11 and 12, respectively. In vitro release (IVR) testing was performed with both prototypes, using simulated urine at 3 different pH ranges as the release media: pH 5, 6.8, and 8 (n=3 systems tested in each media).

[14] = rats dosed orally, 2 and 7 hours
Procedure: Extracellular signal-regulated kinase (ERK)1/2 phosphorylation was assessed as a PD marker for FGFR kinase inhibition in tumors at various time points post administration/installation.

[15] = rat, in vivo
Source text: (§3) Rat bladders (5 groups of rats, n=3/group) were surgically catheterized under anesthesia and the catheter was externalized, tunneled subcutaneously, and connected to a vascular access harness (VAH) in the neck. […] Plasma and bladder samples were collected at all time points.

[16] = urine
Source text: On Day −7 a catheter was surgically placed in the bladder of each animal. The distal end of the catheter was anchored to a subcutaneous site and attached to a vascular access port (VAP). The port was secured and the animals were allowed to recover. Each animal was subsequently fitted with a portable infusion pump that was attached to the bladder catheter via the VAP. […] All excreted urine was collected in 24-hour intervals through Day 6 or 8. Blood samples were collected daily on study Days 1 to 8. Bladder tissue samples were collected from each animal at necropsy.

[17] = in vivo; conditions: female, Sprague-Dawley, rat
Source text: as §3

[18] = in vitro; conditions: minipig, bladder tissue
[19] = in vitro; conditions: rat, bladder tissue
[20] = in vitro; conditions: human, bladder tissue
[21] = in vitro; conditions: bladder tumor tissue

For COc1cc(OC)cc(N(CCNC(C)C)c2ccc3ncc(-c4cnn(C)c4)nc3c2)c1 [Erdafitinib, N-(3,5-dimethoxyphenyl)-N′-(1-methylethyl)-N-[3-(1-methyl-1H-pyrazol-4-yl)quinoxalin-6-yl]ethane-1,2-diamine], the “In Vitro Permeation” value ([1]; material EVA (CoTran 9712)) was “Δ”, the “In Vitro Permeation” value ([1]; material Silicone (MED-4750)) was “X” and the “In Vitro Permeation” value ([1]; material TPU (AC-4075A)) was “X”. The “In Vitro Permeation” value ([1]; material TPU (AR-62A)) was “X”, the “In Vitro Permeation” value ([1]; material TPU (EG-80A)) was “Δ” and the “In Vitro Permeation” value ([1]; material TPU (HP-60D-35)) was “◯”. The “In Vitro Permeation” value ([1]; material TPU (HP-93A-100)) was “◯”, the “In Vitro Permeation” value ([1]; material TPU (PC-3575A)) was “X” and the “In Vitro Permeation” value ([1]; material TPU (TT-1074A)) was “X”. For the same compound, the “Observations (release profile)” value ([2]; device AR-62A base with HP-60D-35 stripe) was “Release profile shows more pH”, the “Observations (release profile)” value ([2]; device EG-80A base with HP-60D-35 stripe) was “Release profile shows more pH” and the stability in urine ([3]; 6 hours) was “sufficiently stable”. For the same compound, the recovery at 6 h ([3]; human urine spiked at 1, 3, and 5 μg/mL) was 89 to 98%, the stability in urine ([4]; 6 hours) was “sufficiently stable” and the recovery at 6 h ([4]; minipig urine spiked at 1, 3, and 5 μg/mL) was 92 to 93%. For the same compound, the stability in urine ([5]; 6 hours) was “sufficiently stable”, the recovery at 6 h ([5]; rat urine spiked at 1, 3, and 5 μg/mL) was 90 to 95% and the “Percent erdafitinib free in urine” value [6] was 84%. The “Percent erdafitinib free in urine” value [7] was 97%, the “Percent erdafitinib free in urine” value [8] was 95% and the “ERK1/2 phosphorylation in UM-UC-1 tumors” value ([9]; 6 mg/kg intravesical and 20 mg/kg oral doses, 2 hours post dosing) was “statistically significant decrease”. It also gave a pERK/ERK ([9]; 2 hours post dose, IVES, 6 mg/kg, relative to vehicle group) of 0.62, a pERK/ERK ([9]; 2 hours post dose, p.o., 20 mg/kg, relative to vehicle group) of 0.52 and a pERK/ERK ([9]; 7 hours post dose, IVES, 6 mg/kg, relative to vehicle group) of 0.60. The pERK/ERK ([9]; 7 hours post dose, p.o., 20 mg/kg, relative to vehicle group) was 0.61, the pERK/ERK ([9]; 48 hours post dose, IVES, 6 mg/kg, relative to vehicle group) was 0.71 and the pERK/ERK ([9]; 48 hours post dose, p.o., 20 mg/kg, relative to vehicle group) was 0.76. For the same compound, the pERK/ERK ([9]; 120 hours post dose, IVES, 6 mg/kg, relative to 48-hour vehicle group) was 0.98, the pERK/ERK ([9]; 120 hours post dose, p.o., 20 mg/kg, relative to 48-hour vehicle group) was 1.22 and the “percentage change in body weight vs vehicle control” value ([10]; 0.5, 1.0, and 5.0 μg/mL treatment groups) was “Statistically non-significant difference”. The “bladder weight vs vehicle control” value ([10]; 0.5, 1.0 and 5 μg/mL nominal urine concentrations) was “significant dose-related decrease”, the cage side observations ([10]; all treatment groups) was “no visible signs of abnormal behavior or clinical symptoms” and the “bladder weight vs vehicle control” value ([11]; 1.0 μg/mL perfusate concentration) was “significant bladder weight reduction”. The “bladder weight decrease vs vehicle control” value ([11]; 0.25 and 0.5 μg/mL dose groups) was “not statistically significant”, the “percentage change in body weight vs vehicle control” value ([11]; 0.5, 1.0, and 5.0 μg/mL treatment groups, except Group 4 on Day 11) was “Statistically non-significant difference” and the “body weight loss, maximum mean values” ([11]; erdafitinib-treated group, Day 11) was “up to −3%”. The solubility [12] was “significant pH-dependent solubility”, the “pH dependency of release by drug format” value [13] was “significant pH dependency” and the “exposure levels in s.c. tumors lower than in orthotopic tumors” value [14] was “Roughly 2 fold”. The C96 h [15] was “BQL”, the C120 h [15] was “BQL” and the “Daily erdafitinib recoveries, of average daily amount administered” value [16] was 15.7%. For the same compound, the concentration at 96 h ([17]; C96 h) was 56.9 ng/mL, the concentration at 120 h ([17]; C120 h) was 10.7 ng/mL and the fraction unbound [18] was 0.79. For the same compound, the fraction unbound [19] was 0.33, the fraction unbound [20] was 0.39 and the fraction unbound [21] was 0.4.

— US20240350485A1 (TARIS Biomedical LLC, priority 2021, published 2024)
